Laboratory results published in patent publication US20080058213A1, “Benzoxazole Compounds” (priority 2004, published 2008).

Tests used:
Assay type in all cases: in vivo
[1] = system: common lambsquaters; assay: Foliage treatment test for upland field (Test Example 3): common lambsquaters; settings: foliage treatment at 1.0-2.0 leaf stage of southern crabgrass, examined after 3 weeks
Text: (§1) Evaluation of the herbicidal effect is shown in the following six grades, by comparing the condition of untreated control and growth inhibition (%): • 0: 0%-less than 20% • 1: 20%-less than 40% • 2: 40%-less than 60% • 3: 60%-less than 80% • 4: 80%-less than 100% • 5: 100%.
(§2) Compost mixed soil was filled in 1/3,000 are pots, seeded with southern crabgrass, common lambsquaters, slender amaranth, common purslane, velvetleaf, wheat, corn and soybean. The seeds were covered up with the soil and cultured in a glasshouse kept at 25° C. on the average.
(§3) Wettable powders containing the object compounds (1) as identified in Table 1, which were formulated following Preparation Example 2, were diluted with water to the prescribed dose of the active ingredient, and uniformly sprayed onto the weeds at 1.0-2.0 leaf stage of the southern crabgrass at an application water of 15 liters per are.
(§4) After placing the test pots in a grasshouse kept at 25° C. on the average for 3 weeks, the herbicidal effect was examined.
(§5) Evaluation of the herbicidal effect was conducted in the similar manner to Test Example 1.

[2] = system: soybean; assay: Soil treatment test for upland field (Test Example 2): phytotoxicity to soybean; settings: soil treatment before germination, examined after 3 weeks
[3] = system: common purslane; assay: Foliage treatment test for upland field (Test Example 3): common purslane; settings: foliage treatment at 1.0-2.0 leaf stage of southern crabgrass, examined after 3 weeks
Text: as §1, §2, §3, §4, §5

[4] = system: common lambsquaters (Chenopodium album); assay: Soil treatment test for upland field (Test Example 2): common lambsquaters; settings: soil treatment before germination, examined after 3 weeks
Procedure, shortened: (§6)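 Pots of upland soil were seeded and covered, then wettable-powder formulations at the prescribed active-ingredient dose were sprayed onto the soil surface before weed germination, in 15 liters water per are. After 3 weeks in a glasshouse at about 25° C., growth inhibition versus untreated control was scored 0 (<20%) to 5 (100%).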

[5] = system: soybean; assay: Foliage treatment test for upland field (Test Example 3): phytotoxicity to soybean; settings: foliage treatment at 1.0-2.0 leaf stage of southern crabgrass, examined after 3 weeks
Experimental: (§7) Evaluation of phytotoxicity is shown in the following six grades, as compared with the condition of untreated control: • 0: normal growth • 1: little damaged • 2: low damaged • 3: medium damaged • 4: serious damaged • 5: complete killed.
as §2, §4

[6] = system: common purslane (Portulaca oleracea); assay: Soil treatment test for upland field (Test Example 2): common purslane; settings: soil treatment before germination, examined after 3 weeks
Procedure, shortened: as §6

[7] = system: wheat; assay: Soil treatment test for upland field (Test Example 2): phytotoxicity to wheat; settings: soil treatment before germination, examined after 3 weeks
[8] = system: rice plant; assay: Weed control test for paddy field (Test Example 1): phytotoxicity to rice plant; settings: paddy pots, treated at 1.0 leaf stage of barnyard grass, examined after 3 weeks
Text: (§8) Paddy field soil was filled in 1/10,000 are pots, kneaded with adequate amounts of water and chemical fertilizer, seeded with barnyard grass (Echinochloa crusgalli), Monochoria (Monochoria vaginalis), Japanese bulrush (Scirpus juncoides) and flat sedge (Cyperus serotinus), and further transplanted with 2.0 leaf stage of rice plant. The pots were maintained under the water-filled condition to a depth of 3 cm.
(§9) Wettable powders containing the compounds (1) as identified in Table 1, which were formulated following Production Example 2, were diluted with adequate amount of water and applied to the pots dropwise with pippet at a prescribed dose of the active ingredients per are, at 1.0 leaf stage of the barnyard grass.
(§10) After placing the pots in a glasshouse which was controlled at an average temperature of 25° C. for 3 weeks, herbicidal effect was examined.
as §7

[9] = system: velvetleaf; assay: Foliage treatment test for upland field (Test Example 3): velvetleaf; settings: foliage treatment at 1.0-2.0 leaf stage of southern crabgrass, examined after 3 weeks
Text: as §1, §2, §3, §4, §5

[10] = system: southern crabgrass (Digitaria ciliaris); assay: Soil treatment test for upland field (Test Example 2): southern crabgrass; settings: soil treatment before germination, examined after 3 weeks
Procedure, shortened: as §6

[11] = system: flat sedge (Cyperus serotinus); assay: Weed control test for paddy field (Test Example 1): flat sedge; settings: paddy pots, treated at 1.0 leaf stage of barnyard grass, examined after 3 weeks
Text: as §8, §9, §10, §1

[12] = system: Monochoria (Monochoria vaginalis); assay: Weed control test for paddy field (Test Example 1): Monochoria; settings: paddy pots, treated at 1.0 leaf stage of barnyard grass, examined after 3 weeks
Text: as §8, §9, §10, §1

[13] = system: slender amaranth (Amaranthus viridis); assay: Soil treatment test for upland field (Test Example 2): slender amaranth; settings: soil treatment before germination, examined after 3 weeks
Procedure, shortened: as §6

[14] = system: slender amaranth; assay: Foliage treatment test for upland field (Test Example 3): slender amaranth; settings: foliage treatment at 1.0-2.0 leaf stage of southern crabgrass, examined after 3 weeks
Text: as §1, §2, §3, §4, §5

[15] = system: barnyard grass (Echinochloa crusgalli); assay: Weed control test for paddy field (Test Example 1): barnyard grass; settings: paddy pots, treated at 1.0 leaf stage of barnyard grass, examined after 3 weeks
Text: as §8, §9, §10, §1

[16] = system: Japanese bulrush (Scirpus juncoides); assay: Weed control test for paddy field (Test Example 1): Japanese bulrush; settings: paddy pots, treated at 1.0 leaf stage of barnyard grass, examined after 3 weeks
Text: as §8, §9, §10, §1

[17] = system: corn; assay: Foliage treatment test for upland field (Test Example 3): phytotoxicity to corn; settings: foliage treatment at 1.0-2.0 leaf stage of southern crabgrass, examined after 3 weeks
Experimental: as §7, §2, §4

[18] = system: corn; assay: Soil treatment test for upland field (Test Example 2): phytotoxicity to corn; settings: soil treatment before germination, examined after 3 weeks
[19] = system: southern crabgrass; assay: Foliage treatment test for upland field (Test Example 3): southern crabgrass; settings: foliage treatment at 1.0-2.0 leaf stage of southern crabgrass, examined after 3 weeks
Text: as §1, §2, §3, §4, §5

[20] = system: velvetleaf (Abutilon theophrasti); assay: Soil treatment test for upland field (Test Example 2): velvetleaf; settings: soil treatment before germination, examined after 3 weeks
Procedure, shortened: as §6

[21] = system: wheat; assay: Foliage treatment test for upland field (Test Example 3): phytotoxicity to wheat; settings: foliage treatment at 1.0-2.0 leaf stage of southern crabgrass, examined after 3 weeks
Experimental: as §7, §2, §4

## COCC(=Cc1ccc(Cl)c(C(F)(F)F)c1)c1nc2cc(Cl)ccc2o1 [Compound 9]
[1]; dose 2.5 g ai/a
  Herbicidal Effect Common lambsquatters: 5 (100%)
[1]; dose 5 g ai/a
  Herbicidal Effect Common lambsquatters: 5 (100%)
[2]; dose 2.5 g ai/a
  Phytotoxicity soybean: 0
[2]; dose 5 g ai/a
  Phytotoxicity soybean: 0
[3]; dose 2.5 g ai/a
  Herbicidal Effect common purslane: 5 (100%)
[3]; dose 5 g ai/a
  Herbicidal Effect common purslane: 5 (100%)
[4]; dose 2.5 g ai/a
  Herbicidal Effect common lambsquaters: 5 (100%)
[4]; dose 5 g ai/a
  Herbicidal Effect common lambsquaters: 5 (100%)
[5]; dose 2.5 g ai/a
  Phytotoxicity soybean: 0
[5]; dose 5 g ai/a
  Phytotoxicity soybean: 1
[6]; dose 2.5 g ai/a
  Herbicidal Effect common purslane: 5 (100%)
[6]; dose 5 g ai/a
  Herbicidal Effect common purslane: 5 (100%)
[7]; dose 2.5 g ai/a
  Phytotoxicity wheat: 0
[7]; dose 5 g ai/a
  Phytotoxicity wheat: 1
[8]; dose 2.5 g ai/a
  Phytotoxicity Rice plant: 0
[8]; dose 5 g ai/a
  Phytotoxicity Rice plant: 0
[9]; dose 2.5 g ai/a
  Herbicidal Effect velvetleaf: 4 (80%-less than 100%)
[9]; dose 5 g ai/a
  Herbicidal Effect velvetleaf: 5 (100%)
[10]; dose 2.5 g ai/a
  Herbicidal Effect southern crabgrass: 5 (100%)
[10]; dose 5 g ai/a
  Herbicidal Effect southern crabgrass: 5 (100%)
[11]; dose 2.5 g ai/a
  Herbicidal Effect Flat sedge: 2 (40%-less than 60%)
[11]; dose 5 g ai/a
  Herbicidal Effect Flat sedge: 3 (60%-less than 80%)
[12]; dose 2.5 g ai/a
  Herbicidal Effect Monochoria vaginalis: 5 (100%)
[12]; dose 5 g ai/a
  Herbicidal Effect Monochoria vaginalis: 5 (100%)
[13]; dose 2.5 g ai/a
  Herbicidal Effect slender amaranth: 5 (100%)
[13]; dose 5 g ai/a
  Herbicidal Effect slender amaranth: 5 (100%)
[14]; dose 2.5 g ai/a
  Herbicidal Effect slender amaranth: 5 (100%)
[14]; dose 5 g ai/a
  Herbicidal Effect slender amaranth: 5 (100%)
[15]; dose 2.5 g ai/a
  Herbicidal Effect Barnyard grass: 4 (80%-less than 100%)
[15]; dose 5 g ai/a
  Herbicidal Effect Barnyard grass: 5 (100%)
[16]; dose 2.5 g ai/a
  Herbicidal Effect Japanese bulrush: 3 (60%-less than 80%)
[16]; dose 5 g ai/a
  Herbicidal Effect Japanese bulrush: 4 (80%-less than 100%)
[17]; dose 2.5 g ai/a
  Phytotoxicity corn: 1
[17]; dose 5 g ai/a
  Phytotoxicity corn: 1
[18]; dose 2.5 g ai/a
  Phytotoxicity corn: 1
[18]; dose 5 g ai/a
  Phytotoxicity corn: 1
[19]; dose 2.5 g ai/a
  Herbicidal Effect southern crabgrass: 5 (100%)
[19]; dose 5 g ai/a
  Herbicidal Effect southern crabgrass: 5 (100%)
[20]; dose 2.5 g ai/a
  Herbicidal Effect velvetleaf: 4 (80%-less than 100%)
[20]; dose 5 g ai/a
  Herbicidal Effect velvetleaf: 5 (100%)
[21]; dose 2.5 g ai/a
  Phytotoxicity wheat: 1
[21]; dose 5 g ai/a
  Phytotoxicity wheat: 1

## COCC(=Cc1cccc(C(F)(F)F)c1)c1nc2cc(C(C)(C)C)ccc2o1 [Compound 151]
[1]; dose 2.5 g ai/a
  Herbicidal Effect Common lambsquatters: 5 (100%)
[1]; dose 5 g ai/a
  Herbicidal Effect Common lambsquatters: 5 (100%)
[3]; dose 2.5 g ai/a
  Herbicidal Effect common purslane: 5 (100%)
[3]; dose 5 g ai/a
  Herbicidal Effect common purslane: 5 (100%)
[5]; dose 2.5 g ai/a
  Phytotoxicity soybean: 0
[5]; dose 5 g ai/a
  Phytotoxicity soybean: 0
[8]; dose 2.5 g ai/a
  Phytotoxicity Rice plant: 0
[8]; dose 5 g ai/a
  Phytotoxicity Rice plant: 0
[9]; dose 2.5 g ai/a
  Herbicidal Effect velvetleaf: 3 (60%-less than 80%)
[9]; dose 5 g ai/a
  Herbicidal Effect velvetleaf: 4 (80%-less than 100%)
[11]; dose 2.5 g ai/a
  Herbicidal Effect Flat sedge: 3 (60%-less than 80%)
[11]; dose 5 g ai/a
  Herbicidal Effect Flat sedge: 4 (80%-less than 100%)
[12]; dose 2.5 g ai/a
  Herbicidal Effect Monochoria vaginalis: 5 (100%)
[12]; dose 5 g ai/a
  Herbicidal Effect Monochoria vaginalis: 5 (100%)
[14]; dose 2.5 g ai/a
  Herbicidal Effect slender amaranth: 5 (100%)
[14]; dose 5 g ai/a
  Herbicidal Effect slender amaranth: 5 (100%)
[15]; dose 2.5 g ai/a
  Herbicidal Effect Barnyard grass: 4 (80%-less than 100%)
[15]; dose 5 g ai/a
  Herbicidal Effect Barnyard grass: 5 (100%)
[16]; dose 2.5 g ai/a
  Herbicidal Effect Japanese bulrush: 3 (60%-less than 80%)
[16]; dose 5 g ai/a
  Herbicidal Effect Japanese bulrush: 5 (100%)
[17]; dose 2.5 g ai/a
  Phytotoxicity corn: 0
[17]; dose 5 g ai/a
  Phytotoxicity corn: 0
[19]; dose 2.5 g ai/a
  Herbicidal Effect southern crabgrass: 4 (80%-less than 100%)
[19]; dose 5 g ai/a
  Herbicidal Effect southern crabgrass: 5 (100%)
[21]; dose 2.5 g ai/a
  Phytotoxicity wheat: 0
[21]; dose 5 g ai/a
  Phytotoxicity wheat: 0
